Source: patent US20240190874A1, “SMALL MOLECULE DEGRADERS OF ANDROGEN RECEPTOR” (THE REGENTS OF THE UNIVERSITY OF MICHIGAN, priority 2021, published 2024)
pIC50: −log10 of the molar value. Like-named read-outs stand apart in the source and are kept apart here.

Columns and labels:
Type in all cases: cell-based
AR = biological target: T1, AR (Homo sapiens, UniProt P10275); assay: Degradation of AR in VCaP cells; conditions: for Dmax: VCaP
T1 construct: Degradation of AR; Cellular potency; host or cells: VCaP cells
T1 sequence (P10275 1-920): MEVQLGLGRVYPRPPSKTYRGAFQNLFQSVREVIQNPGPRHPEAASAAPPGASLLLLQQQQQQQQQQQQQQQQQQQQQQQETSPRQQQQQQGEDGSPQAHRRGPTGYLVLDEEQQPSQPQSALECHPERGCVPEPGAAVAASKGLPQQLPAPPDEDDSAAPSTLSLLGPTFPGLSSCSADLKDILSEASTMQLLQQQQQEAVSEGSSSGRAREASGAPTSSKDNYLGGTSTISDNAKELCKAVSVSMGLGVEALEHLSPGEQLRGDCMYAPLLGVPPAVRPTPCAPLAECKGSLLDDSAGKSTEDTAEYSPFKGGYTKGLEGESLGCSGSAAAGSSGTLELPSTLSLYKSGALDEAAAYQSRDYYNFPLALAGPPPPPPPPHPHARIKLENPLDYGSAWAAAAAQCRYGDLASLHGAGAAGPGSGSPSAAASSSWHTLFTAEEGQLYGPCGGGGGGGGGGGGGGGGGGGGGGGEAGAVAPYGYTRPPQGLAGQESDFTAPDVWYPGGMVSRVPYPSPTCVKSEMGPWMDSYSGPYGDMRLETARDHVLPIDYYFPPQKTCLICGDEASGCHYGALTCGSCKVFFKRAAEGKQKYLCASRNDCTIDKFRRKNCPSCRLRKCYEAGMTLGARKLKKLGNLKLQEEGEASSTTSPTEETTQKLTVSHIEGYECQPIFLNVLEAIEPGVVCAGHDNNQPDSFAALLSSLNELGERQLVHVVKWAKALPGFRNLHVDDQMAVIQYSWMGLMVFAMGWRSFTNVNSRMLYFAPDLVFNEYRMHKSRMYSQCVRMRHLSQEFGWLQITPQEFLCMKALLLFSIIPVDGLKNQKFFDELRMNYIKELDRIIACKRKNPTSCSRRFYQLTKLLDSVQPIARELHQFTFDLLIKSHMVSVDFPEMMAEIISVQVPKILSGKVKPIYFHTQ
Procedure: (§1) Biological Assays. LNCaP and VCaP cells used were purchased from American Type Culture Collection (ATCC). LNCaP were grown in RPMI 1640 (Invitrogen) and VCaP cells were grown in DMEM with Glutamax (Invitrogen). All of the cells were supplemented with 10% fetal bovine serum (Invitrogen) at 37° C. in a humidified 5% CO2 incubator.

LNCaP cells = assay: Cellular potency (IC50) in LNCaP cells
Procedure: as §1

VCaP cells = assay: Cellular potency (IC50) in VCaP cells
Procedure: as §1

SMILES	DC50 (AR; VCaP cells)	Dmax (AR; VCaP cells)	pIC50 (LNCaP cells; Homo sapiens, LNCaP)	pIC50 (VCaP cells; Homo sapiens, VCaP)	pIC50 (LNCaP cells)	pIC50 (VCaP cells)	Dmax (AR)
C[C@H]1CC2(CCN(c3ccc(S(=O)(=O)N4CCN(C5CCN(c6ccc7c(c6)C(=O)N(C6CCC(=O)NC6=O)C7=O)CC5)CC4)cc3)CC2)CN1c1ccc(C#N)c(Cl)c1 (stereo partly drawn) [compound 1]	< 1 nM	> 90%	–	–	–	–	–
C[C@H]1CC2(CCN(c3ccc(S(=O)(=O)N4CCN(C5CN(c6ccc7c(c6)C(=O)N(C6CCC(=O)NC6=O)C7=O)C5)CC4)cc3)CC2)CN1c1ccc(C#N)c(Cl)c1 (stereo partly drawn) [compound 2]	< 1 nM	> 90%	> 8.00	> 8.00	–	–	–
C[C@H]1CC2(CCN(c3ccc(S(=O)(=O)N4CCC(CN5Cc6cc7c(cc6C5)C(=O)N(C5CCC(=O)NC5=O)C7=O)CC4)cc3)CC2)CN1c1ccc(C#N)c(Cl)c1 (stereo partly drawn) [compound 3]	< 1 nM	> 90%	> 8.00	> 8.00	–	–	–
C[C@H]1CC2(CCN(c3ccc(S(=O)(=O)N4CCC(N5Cc6cc7c(cc6C5)C(=O)N(C5CCC(=O)NC5=O)C7=O)CC4)cc3)CC2)CN1c1ccc(C#N)c(Cl)c1 (stereo partly drawn) [compound 4]	< 1 nM	70 to 90%	> 8.00	> 8.00	–	–	–
C[C@H]1CC2(CCN(c3ccc(CN4CCN(C5CN(c6ccc7c(c6)C(=O)N(C6CCC(=O)NC6=O)C7=O)C5)CC4)cc3)CC2)CN1c1ccc(C#N)c(Cl)c1 (stereo partly drawn) [compound 5]	< 1 nM	> 90%	> 8.00	> 8.00	–	–	–
C[C@H]1CC2(CCN(c3ccc(CN4CCN(C5CN(c6ccc7c(c6)C(=O)N(C6CCC(=O)NC6=O)C7=O)C5)CC4)cc3)CC2)CN1c1ccc(C#N)c(Cl)c1 (stereo partly drawn) [compound 6]	< 1 nM	–	–	–	> 8.00	> 8.00	–
C[C@H]1CC2(CCN(c3ccc(CN4CCN(C5CN(c6ccc7c(c6)C(=O)N(C6CCC(=O)NC6=O)C7=O)C5)CC4)c(F)c3)CC2)CN1c1ccc(C#N)c(Cl)c1 (stereo partly drawn) [compound 8]	< 10 nM	70 to 90%	> 7.00	> 7.00	–	–	–
C[C@H]1CC2(CCN(c3ccc(CN4CCC(C5CN(c6ccc7c(c6)C(=O)N(C6CCC(=O)NC6=O)C7=O)C5)CC4)c(F)c3)CC2)CN1c1ccc(C#N)c(Cl)c1 (stereo partly drawn) [compound 9]	< 1 nM	> 90%	–	–	> 8.00	> 8.00	–
C[C@H]1CC2(CCN(c3ccc(CN4CCN(C5CCN(c6ccc7c(c6)C(=O)N(C6CCC(=O)NC6=O)C7=O)CC5)CC4)c(F)c3)CC2)CN1c1ccc(C#N)c(Cl)c1 (stereo partly drawn) [compound 10]	< 10 nM	> 90%	–	–	> 8.00	> 8.00	–
COC1(CN2Cc3cc4c(cc3C2)C(=O)N(C2CCC(=O)NC2=O)C4=O)CCN(C(=O)c2ccc(N3CCC4(CC3)C[C@H](C)N(c3ccc(C#N)c(F)c3)C4)cc2)CC1 (stereo partly drawn) [compound 13]	< 100 nM	–	–	–	–	–	> 90%
C[C@H]1CC2(CCN(c3ccc(C4CCN(C(=O)CN5Cc6cc7c(cc6C5)C(=O)N(C5CCC(=O)NC5=O)C7=O)CC4)cc3)CC2)CN1c1ccc(C#N)c(Cl)c1 (stereo partly drawn) [compound 15]	< 100 nM	> 90%	–	–	–	–	–
C=C1CCC(N2C(=O)c3ccc(N4CC(C5CCN(Cc6ccc(N7CCC8(CC7)C[C@H](C)N(c7ccc(C#N)c(Cl)c7)C8)cc6)CC5)C4)cc3C2=O)C(=O)N1 (stereo partly drawn) [compound 16]	–	> 90%	> 8.00	> 8.00	–	–	–
C=C1CCC(N2C(=O)c3ccc(N4CCC(C5CCN(Cc6ccc(N7CCC8(CC7)C[C@H](C)N(c7ccc(C#N)c(Cl)c7)C8)cc6)CC5)CC4)cc3C2=O)C(=O)N1 (stereo partly drawn) [compound 17]	–	70 to 90%	> 7.00	> 7.00	–	–	–
C[C@H]1CC2(CCN(c3ccc(N4CCN(CC5(F)CN(c6ccc7c(c6)C(=O)N(C6CCC(=O)NC6=O)C7=O)C5)CC4)cc3)CC2)CN1c1ccc(C#N)c(Cl)c1 (stereo partly drawn) [compound 84]	< 1 nM	> 90%	–	–	–	–	–
COC1(CN2CCN(c3ccc(N4CCC5(CC4)C[C@H](C)N(c4ccc(C#N)c(Cl)c4)C5)cc3)CC2)CN(c2ccc3c(c2)C(=O)N(C2CCC(=O)NC2=O)C3=O)C1 (stereo partly drawn) [compound 85]	< 1 nM	> 90%	–	–	–	–	–
C[C@H]1CC2(CCN(c3ccc(N4CCN(CC5(F)CN(c6ccc7c(c6)C(=O)N(C6CCC(=O)NC6=O)C7=O)C5)CC4)nc3)CC2)CN1c1ccc(C#N)c(Cl)c1 (stereo partly drawn) [compound 86]	< 1 nM	> 90%	–	–	–	–	–
COC1(CN2CCN(c3ccc(N4CCC5(CC4)C[C@H](C)N(c4ccc(C#N)c(Cl)c4)C5)cn3)CC2)CN(c2ccc3c(c2)C(=O)N(C2CCC(=O)NC2=O)C3=O)C1 (stereo partly drawn) [compound 87]	< 1 nM	> 90%	–	–	–	–	–
C[C@H]1CC2(CCN(c3ccc(N4CCN(CC5(F)CN(c6ccc7c(c6)C(=O)N(C6CCC(=O)NC6=O)C7=O)C5)CC4)cn3)CC2)CN1c1ccc(C#N)c(Cl)c1 (stereo partly drawn) [compound 88]	< 1 nM	> 90%	–	–	–	–	–
COC1(CN2CCN(c3ccc(N4CCC5(CC4)C[C@H](C)N(c4ccc(C#N)c(Cl)c4)C5)nc3)CC2)CN(c2ccc3c(c2)C(=O)N(C2CCC(=O)NC2=O)C3=O)C1 (stereo partly drawn) [compound 89]	< 1 nM	> 90%	–	–	–	–	–
C[C@H]1CC2(CCN(c3ccc(C(=O)C4CCN(CC(=O)N5Cc6cc7c(cc6C5)C(=O)N(C5CCC(=O)NC5=O)C7=O)CC4)cc3)CC2)CN1c1ccc(C#N)c(Cl)c1 (stereo partly drawn) [compound 147, 2-chloro-4-((3S)-8-(4-(1-(2-(6-(2,6-dioxopiperidin-3-yl)-5,7-dioxo-3,5,6,7-tetrahydropyrrolo[3,4-f]isoindol-2(1H)-yl)-2-oxoethyl)piperidine-4-carbonyl)phenyl)-3-methyl-2,8-diazaspiro[4.5]decan-2-yl)benzonitrile]	–	–	> 8.00	> 7.00	–	–	–
C[C@H]1CC2(CCN(c3ccc(C(=O)C4CCN(C(=O)CN5Cc6cc7c(cc6C5)C(=O)N(C5CCC(=O)NC5=O)C7=O)CC4)cc3)CC2)CN1c1ccc(C#N)c(Cl)c1 (stereo partly drawn) [compound 148, 2-chloro-4-((3S)-8-(4-(1-(2-(6-(2,6-dioxopiperidin-3-yl)-5,7-dioxo-3,5,6,7-tetrahydropyrrolo[3,4-f]isoindol-2(1H)-yl)acetyl)piperidine-4-carbonyl)phenyl)-3-methyl-2,8-diazaspiro[4.5]decan-2-yl)benzonitrile]	–	–	> 8.00	> 7.00	–	–	–
C[C@H]1CC2(CCN(c3ccc(CN4CCN(C5CN(c6cc7c(cc6F)C(=O)N(C6CCC(=O)NC6=O)C7=O)C5)CC4)cn3)CC2)CN1c1ccc(C#N)c(Cl)c1 (stereo partly drawn) [compound 153, 2-chloro-4-((3S)-8-(5-((4-(1-(2-(2,6-dioxopiperidin-3-yl)-6-fluoro-1,3-dioxoisoindolin-5-yl)azetidin-3-yl)piperazin-1-yl)methyl)pyridin-2-yl)-3-methyl-2,8-diazaspiro[4.5]decan-2-yl)benzonitrile]	–	–	> 8.00	> 7.00	–	–	–
C[C@H]1CC2(CCN(c3ccc(CN4CCN(C5CN(c6ccc7c(c6)C(=O)N(C6CCC(=O)NC6=O)C7=O)C5)CC4)cn3)CC2)CN1c1ccc(C#N)c(Cl)c1 (stereo partly drawn) [compound 167]	–	–	> 8.00	> 8.00	–	–	–
C[C@H]1CC2(CCN(c3ccc(CN4CCN(C5CN(c6ccc7c(c6)C(=O)N(C6CCC(=O)NC6=O)C7=O)C5)CC4)nc3)CC2)CN1c1ccc(C#N)c(Cl)c1 (stereo partly drawn) [compound 169, 2-chloro-4-((3S)-8-(6-((4-(1-(2-(2,6-dioxopiperidin-3-yl)-1,3-dioxoisoindolin-5-yl)azetidin-3-yl)piperazin-1-yl)methyl)pyridin-3-yl)-3-methyl-2,8-diazaspiro[4.5]decan-2-yl)benzonitrile]	–	–	> 8.00	> 8.00	–	–	–
C[C@H]1CC2(CCN(c3cnc(CN4CCN(C5CN(c6ccc7c(c6)C(=O)N(C6CCC(=O)NC6=O)C7=O)C5)CC4)nc3)CC2)CN1c1ccc(C#N)c(Cl)c1 (stereo partly drawn) [compound 170, 2-chloro-4-((3S)-8-(2-((4-(1-(2-(2,6-dioxopiperidin-3-yl)-1,3-dioxoisoindolin-5-yl)azetidin-3-yl)piperazin-1-yl)methyl)pyrimidin-5-yl)-3-methyl-2,8-diazaspiro[4.5]decan-2-yl)benzonitrile]	–	–	> 8.00	> 7.00	–	–	–
C[C@H]1CC2(CCN(c3ccc(CN4CCC(C5CCN(c6ccc7c(c6)C(=O)N(C6CCC(=O)NC6=O)C7=O)CC5)CC4)cn3)CC2)CN1c1ccc(C#N)c(Cl)c1 (stereo partly drawn) [compound 180, 2-chloro-4-((3S)-8-(5-((1′-(2-(2,6-dioxopiperidin-3-yl)-1,3-dioxoisoindolin-5-yl)-[4,4′-bipiperidin]-1-yl)methyl)pyridin-2-yl)-3-methyl-2,8-diazaspiro[4.5]decan-2-yl)benzonitrile]	–	–	> 8.00	> 7.00	–	–	–
